{"source": "patent US20210106742A1", "about": "“NON-HEMOLYTIC COMPOSITIONS AND METHODS OF USE FOR RECOVERING DISEASE CAUSING TOXIC CONSTITUENTS IN THE BLOOD” (ACTORIUS INNOVATIONS AND RESEARCH CO, priority 2019, published 2021)", "key": {"[1]": {"tested_on": "Red Blood Cells from whole human blood", "assay": "Red Blood Cells hemolysis assay", "method": "Red Blood Cells from whole human blood were separated by centrifugation at room temperature and washed in sodium chloride solution two times and resuspended in phosphate buffer saline with pH 7.4. The resuspended red blood cells were incubated with the composition to be evaluated for 30 minutes at 37° C. The samples were centrifuged and the supernatant collected and analyzed for hemolysis using UV spectroscopy. The percentage of hemolysis was estimated against a negative control phosphate buffer saline with pH 7.4 and positive control 0.5% Triton-X100 prepared in phosphate-buffered saline with pH 7.4.\nRed Blood Cells from whole human blood (5 milliliter) were separated by centrifugation (500×g, 5 minutes) at room temperature and washed in 150 mM sodium chloride (NaCl) solution two times and resuspended in a total final volume of 5 milliliter with phosphate buffered saline with pH 7.4. The resuspended red blood cells were incubated by mixing with materials listed in Table 1 for 30 minutes at 37° C. The samples were centrifuged (500×g, 5 minutes, room temperature), and supernatants were collected and analyzed for hemolysis using UV spectroscopy at spectra 540 nm. The percentage hemolysis was estimated against a negative control phosphate buffered saline with pH 7.4 and positive control 0.5% Triton-X100."}, "[2]": {"tested_on": "circulating tumor cells (CTC)", "assay": "Destruction of circulating tumor cells using cisplatin", "assay_type": "cell-based, human", "conditions": "CTCs isolated with composition of example 33; 30 micrograms Cisplatin in 100 microliter PBS pH 7.4, two hours", "method": "1.5 ml blood of a cancer patient was incubated with 300 micrograms of composition of example 33 for 5 minutes. CTCs were isolated using magnetic separation and cells were fixed with absolute ethanol and immuno-stained with cytokeratin (CK-18), leucocyte common antigen (CD-45) and with nuclear-staining probe 4′,6-diamidino-2-phenylindole (DAPI). Captured cells were imaged under fluorescence microscope, wherein 3 CTCs were isolated.\n1.5 ml blood of a cancer patient was incubated with 300 micrograms of composition of example 33 for 5 minutes. CTCs were isolated using magnetic separation and incubated for two hours with 30 micrograms Cisplatin in 100 microliter phosphate buffered saline, pH 7.4, and the composition was fixed with absolute ethanol and immuno-stained with cytokeratin (CK-18), leucocyte common antigen (CD-45) and with nuclear-staining probe 4′,6-diamidino-2-phenylindole (DAPI) and imaged under fluorescence microscope."}}, "note": "Where two headings read alike, the source gives them in different places."}
{"molecule": "Triton-X100", "values": [{"measurement": "Percentage Hemolysis", "setting": "[1]", "result": 100, "unit": "%"}]}
{"molecule": "CCO[Si](CCCN)(OCC)OCC", "note": "[(3-Aminopropyl)triethoxysilane]", "values": [{"measurement": "Percentage Hemolysis", "setting": "[1]; sample amount 0.5%, 30 minutes at 37° C.", "result": 0, "unit": "%"}, {"measurement": "Percentage Hemolysis", "setting": "[1]; sample amount 10%, 30 minutes at 37° C.", "result": 36, "unit": "%"}]}
{"molecule": "N.N.[Cl][Pt][Cl]", "note": "[Cisplatin]", "values": [{"measurement": "CTCs observed after incubation with the drug", "setting": "[2]", "result": "No CTCs were observed"}]}
